Results reported in PMC5607274, “An iterative compound screening contest method for identifying target protein inhibitors using the tyrosine-protein kinase Yes” (Scientific Reports, 2017).

Target: T1, human recombinant Yes [a.a. 2–543 (end)] (Homo sapiens, UniProt P07947)
T1 construct: human recombinant Yes [a.a; 2–543 (end)]; purchased BPS Bioscience 40488
Experiment: ADP-Glo kinase assay, inhibition rates of Yes phosphorylation activity (first and second screening)
Format: biochemical
Settings: 10 μmol L−1 compound; for First screening IR (inhibition rate): mean of n = 4 wells
Summary of the method: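 ADP-Glo luminescence measured inhibition of human recombinant Yes (a.a. 2–543) phosphorylation activity. In the first screen, each compound ran in 4 wells and inhibition rates were averaged. The second screen retested hits as compounds dissolved from fresh powder.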

T1 sequence (P07947 2-543): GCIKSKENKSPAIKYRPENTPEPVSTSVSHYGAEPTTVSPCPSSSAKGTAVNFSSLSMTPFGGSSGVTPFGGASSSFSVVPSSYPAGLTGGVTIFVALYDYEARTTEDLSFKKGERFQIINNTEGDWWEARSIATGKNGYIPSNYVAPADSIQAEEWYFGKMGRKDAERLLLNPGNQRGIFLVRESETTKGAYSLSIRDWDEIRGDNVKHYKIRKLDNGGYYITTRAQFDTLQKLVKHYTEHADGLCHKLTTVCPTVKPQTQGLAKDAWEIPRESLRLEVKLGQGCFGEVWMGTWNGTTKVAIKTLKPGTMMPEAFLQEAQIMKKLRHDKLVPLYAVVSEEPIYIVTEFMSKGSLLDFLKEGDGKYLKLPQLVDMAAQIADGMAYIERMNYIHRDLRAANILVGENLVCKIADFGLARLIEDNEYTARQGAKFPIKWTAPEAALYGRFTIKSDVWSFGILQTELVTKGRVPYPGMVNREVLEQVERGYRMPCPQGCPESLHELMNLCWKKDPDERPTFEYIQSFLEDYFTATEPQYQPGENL

SMILES | First screening IR (inhibition rate) [%] | Second screening IR (inhibition rate) (second screening, dissolved from fresh powder, n = 4) [%]
CC(O)C1CCN(C(=O)NCC2CC(C)N(Cc3ccccc3)C2)C1 (centres unmarked) [Compound Z1658298345] | -9 | 
O=S1(=O)CC=C(S(=O)(=O)N2CCCC2)C1 [Compound Z1342206502] | 6 | 
O=C(CSc1nc2ccccc2[nH]1)NC(=O)NCc1ccccc1 [Compound Z19649872] | 7 | 
CC1CCC(NS(=O)(=O)c2ccc(N3CCCC(c4nnc5ccccn45)C3)c([N+](=O)[O-])c2)CC1 (centres unmarked) [Compound Z166704886] | 5 | 
CC1CC(C)CN(S(=O)(=O)c2ccccc2S(C)(=O)=O)C1 (centres unmarked) [Compound Z285665176] | 55 | 
CN1/C(=C\C(=O)CN2C(=O)NC3(CCCc4sccc43)C2=O)C(C)(C)c2ccccc21 (centres unmarked) [Compound Z54813762] | -20 | 
CCOc1ccc(CCNC(=O)c2cc3ccccc3[nH]2)cc1OCC [Compound Z28450151] | -5 | 
Cc1nc(C)n(C2CCCN(C(=O)CCn3ccnc3)C2)n1 (centres unmarked) [Compound Z1139343408] | 0 | 
O=C(Nc1cccc2ncccc12)c1ccc(=O)n(-c2ccc(F)cc2)n1 [Compound Z370787214] | 43 | 
O=C(Nc1cc(-c2cccc(F)c2F)[nH]n1)c1ccc2nncn2c1 [Compound Z1423687928] | 11 | 
O=C(NCC1COc2ccccc2O1)c1cccc(OCc2cn3ccccc3n2)c1 (centres unmarked) [Compound Z185334464] | -12 | 
O=C(Nc1nc2c(s1)CN(Cc1ccccc1)CC2)c1cc(-c2ccco2)[nH]n1 [Compound Z317663344] | -10 | 
O=C(O)c1ccc(/C=C2/CCCc3c2nc2ccccc2c3C(=O)O)cc1 [Compound Z46035770] | 1 | 
O=P(/C=C(\Cl)c1ccccc1)(/C=C(/Cl)c1ccccc1)Nc1cccc(S(=O)(=O)NCc2ccco2)c1 [Compound Z56773378] | -1 | 
Cc1cc(NC(=O)Cn2nc(C)c(S(=O)(=O)N3CCCCC3)c2C)no1 [Compound Z92593810] | -4 | 
CN1CCC(N(c2ccccc2)S(=O)(=O)c2cc(Cl)cc3c2OCC3)CC1 [Compound Z1833465604] | 9 | 
Cn1c(=O)[nH]c(=O)c2c1nc(N1CCC(Cc3ccccc3)CC1)n2CCSc1nnnn1-c1ccccc1 [Compound Z239083338] | 2 | 
Brc1ccc(/C=C2/CCCc3c2nc2ncnn2c3-c2ccc(Br)cc2)cc1 [Compound Z56784274] | 3 | 

SMILES | First screening IR (inhibition rate) [%] | Second screening IR (inhibition rate) (second screening, dissolved from fresh powder, n = 4) [%]
O=C(CSc1ccc(S(=O)(=O)N2CCCC2)cn1)c1ccc2c(c1)OCO2 [Compound Z335869204] | 12 | 
Cc1cccc(OCC(=O)Nc2sc3c(c2C(N)=O)CCC3)c1 [Compound Z26345967] | 18 | 
O=C(NCc1ccccn1)c1cc(-c2cccnc2)nc2c1cnn2Cc1ccco1 [Compound Z242175442] | 22 | 
Cn1nc([N+](=O)[O-])c2c(-c3nc4ccccc4n3C)c(N)n(C3CCCCC3)c2c1=O [Compound Z56852588] | 5 | 
CC(C)CCc1nc(CN2C(=O)NC3(CCN(C(=O)OC(C)(C)C)CC3)C2=O)cs1 [Compound Z1262256786] | -2 | 
Cl.Fc1ccccc1-c1c2c(nc3ccc(Cl)cc13)-c1ccccc1CC2 [Compound Z48955803] | 15 | 
NNc1ncnc2c1cnn2Cc1ccccc1 [Compound Z58286928] | -12 | 
C=CCN(CC=C)S(=O)(=O)c1cc(C)cc(S(C)(=O)=O)c1C [Compound Z1145185872] | 4 | 
Cc1cc(N2CCN(C(=O)Nc3cc(C)c4cn[nH]c4c3)CC2)nc(C)n1 [Compound Z1557589830] | 42 | 
O=C(CCC1NC(=O)NC1=O)Nc1ccc(Oc2ccccc2Cl)cc1 (centres unmarked) [Compound Z168726218] | 11 | 
COc1ccc(OC)c(-n2c(-c3ccc(C)cc3)nn(CN3CCN(c4cccc(Cl)c4)CC3)c2=S)c1 [Compound Z44116384] | 31 | 
O=C(CCNC(=O)c1cc2cc(F)ccc2[nH]1)Nc1ccccn1 [Compound Z649200126] | -10 | 
Cn1c(=O)[nH]c(=O)c2cc(C(=O)OCCNc3ncccc3C#N)cnc21 [Compound Z1633934253] | -1 | 
COC(=O)c1cc(NC(=O)C2=C(Cl)CCCC2)cc(C(=O)OC)c1 [Compound Z223943920] | -1 | 
CC(=O)c1c(C)[nH]c(C(=O)NCCCn2cnc3ccccc32)c1C [Compound Z102448822] | 20 | 
O=C(/C=C/c1ccsc1)NC(c1ccccc1)c1cccs1 (centres unmarked) [Compound Z89582531] | 1 | 
O=C(Cc1ccc(F)cc1)N1CCN(S(=O)(=O)Cc2ccccc2)CC1 [Compound Z28905033] | -2 | 

The next lines start with the values.

First screening IR (inhibition rate) [%] | Second screening IR (inhibition rate) (second screening, dissolved from fresh powder, n = 4) [%] | SMILES
-13 |  | Cc1cc(NC(=O)C(C)SCC(=O)Nc2ccc(SC3CCCC3)cc2)no1 (centres unmarked) [Compound Z357095098]
-6 |  | Cc1nn(C(C)(C)C)c2nc(C3CC3)cc(C(=O)NC(C)C)c12 [Compound Z441582602]
1 |  | COc1cc(C(=O)Nc2c(C)cccc2C(C)C)ccc1OCc1c(C)noc1C [Compound Z26400530]
2 |  | Cc1ccn2cc(C(=O)NCCCn3nc(C)cc3C)nc2c1 [Compound Z137367324]
-6 |  | Cc1nn(C)c2nc(-c3ccccc3)cc(C(=O)Nc3ccc4[nH]c(=O)[nH]c4c3)c12 [Compound Z228695802]
1 |  | COC(=O)c1cc(S(=O)(=O)Oc2ccc3c(C(C)C)cc(=O)oc3c2)cn1C [Compound Z1309300961]
17 |  | CC(Sc1n[nH]c(-c2cccs2)n1)C(=O)c1c[nH]c2ccccc12 (centres unmarked) [Compound Z19450299]
48 |  | CC1CCN(c2nc(N)nc3nc[nH]c23)CCN1Cc1ccccc1 (centres unmarked) [Compound Z1675288656]
9 |  | CN(CCCc1nc2ccccc2[nH]1)C(=O)c1ccc(O)cc1F [Compound Z1614685203]
-12 |  | CN(CC(=O)N1CCc2ccccc2C1)Cc1nc2ccccc2c(=O)[nH]1 [Compound Z46302902]
2 |  | COc1ccc(Br)c(CN(C)C(C)C2CCN(C)CC2)c1 (centres unmarked) [Compound Z1682981267]
-3 |  | FC(F)(F)c1ccnc(Nc2ccc3nc(C4CC4)sc3c2)n1 [Compound Z929767438]
-8 |  | CCc1cc(CNC(=O)NCc2ccc3cc(OC)ccc3c2)on1 [Compound Z1256754058]
-8 |  | CCN(CCCNC(=O)c1cn(-c2ccccc2)nc1-c1cccnc1)c1ccccc1 [Compound Z96041573]
-8 |  | Cc1noc(C)c1CSc1ncnc2sc3c(c12)CCC(C)C3 (centres unmarked) [Compound Z16316201]
10 |  | CN(C)c1nc2ccc(NC(=O)c3csc(-c4ccoc4)n3)cc2o1 [Compound Z1404550995]
-3 |  | COc1ccc(-n2c(=O)c3ccccc3n3c(SCC(=O)NC(C)CCCC(C)C)nnc23)cc1 (centres unmarked) [Compound Z97290306]
-1 |  | Cc1n[nH]c(C)c1C1CCCCCN1C(=O)Nc1cnc(N(C)C)nc1 (centres unmarked) [Compound Z1590996465]

First screening IR (inhibition rate) [%] | Second screening IR (inhibition rate) (second screening, dissolved from fresh powder, n = 4) [%] | SMILES
5 |  | CCOC(=O)c1cnc(SCC(=O)OC/C(O)=C(\C#N)c2nc3ccccc3[nH]2)nc1N [Compound Z76798588]
13 |  | O=C(O)c1cc(-c2cccnc2)nc2c1cnn2Cc1cccnc1 [Compound Z98638708]
-6 |  | COC(=O)c1cc(-c2ccccc2F)nc2c1cnn2C(C)C [Compound Z91043804]
20 |  | Cc1nc2n(n1)CC(NCc1cn[nH]c1-c1ccc(C)o1)CC2 (centres unmarked) [Compound Z1051950052]
60 |  | COc1ccc(C)cc1C(C)NC(=O)CCc1nc2ccccc2[nH]1 (centres unmarked) [Compound Z197873940]
3 |  | COc1ccc(-c2noc(/C=C/c3cncc(O)c3)n2)cc1 [Compound Z1642148255]
-4 |  | Cc1ccc2nc(CSc3n[nH]c(-c4ccccc4)n3)cn2c1 [Compound Z25398010]
34 | -24 | COc1ccc(CCn2c(N)c(C(=O)NCc3ccc4c(c3)OCO4)c3nc4ccccc4nc32)cc1OC [Compound Z56872869]
8 |  | Cc1cc(C)n(CCCNC(=O)c2cc3cc(F)ccc3[nH]2)n1 [Compound Z301214762]
-21 |  | Cn1ncc2c(N(Cc3ccccc3F)C3CC3)ncnc21 [Compound Z328694806]
49 |  | CC(Sc1n[nH]c(-c2ccccc2)n1)C(=O)c1c[nH]c2ccccc12 (centres unmarked) [Compound Z25398193]
-20 |  | CCCCCn1c(-c2ccc(Sc3ccc(C)cc3)c([N+](=O)[O-])c2)nc2c1c(=O)[nH]c(=O)n2CCCC [Compound Z50141536]
4 |  | CC(C)c1ccc(SCc2nc(N)nc(N(C)C)n2)cc1 [Compound Z290622280]
39 |  | Cc1cn2nc(NCc3ccc(N4CCNC(=O)C4)cc3)sc2n1 [Compound Z397897560]
-8 |  | CCC(Sc1n[nH]c(C(C)C)n1)C(=O)Nc1ccc(F)cc1 (centres unmarked) [Compound Z193785446]
-3 |  | Cc1cc(NC(=O)C(C)SCC(=O)Nc2cccc3ncccc23)no1 (centres unmarked) [Compound Z29903633]
-9 |  | Cc1ccc(NC(=O)C(C)Sc2ncnc3sc4c(c23)CCC4)cc1 (centres unmarked) [Compound Z20227630]
